Values after ≈ are worked out from the molar mass of the structure shown. Like-named read-outs stand apart in the source and are kept apart here.
Experiments:
[1] = test system: Escherichia coli W-677/JR 214; assay: MIC (minimum inhibitory concentration); conditions: tobramycin resistant organism
Proteus mirabilis TB-617 = assay: MIC (minimum inhibitory concentration); assay type: cell-based
[2] = test system: Klebsiella pneumoniae Kl-38; assay: MIC (minimum inhibitory concentration)
[3] = test system: Staphylococcus aureus ATCC 25923; assay: MIC (minimum inhibitory concentration)
[4] = test system: Escherichia coli W-677/JR 762; assay: MIC (minimum inhibitory concentration)
[5] = test system: Pseudomonas aeruginosa PP-6; assay: MIC (minimum inhibitory concentration); conditions: tobramycin resistant organism
[6] = test system: Pseudomonas aeruginosa TM-121; assay: MIC (minimum inhibitory concentration)
[7] = test system: Serratia marcescens MA-26; assay: MIC (minimum inhibitory concentration); conditions: MA26
Escherichia coli TB-705 = assay: MIC (minimum inhibitory concentration); assay type: cell-based; conditions: TB705, Table 3
[8] = test system: Enterobacter cloacae CI-83; assay: MIC (minimum inhibitory concentration); conditions: CI83
Proteus rettgeri Ret 33 = assay: MIC (minimum inhibitory concentration); conditions: Providencia rettgeri, RET33
[9] = test system: Citrobacter freundii Ct-31; assay: MIC (minimum inhibitory concentration); conditions: CT31
[10] = test system: Staphylococcus aureus 80285; assay: MIC (minimum inhibitory concentration)
[11] = literature (Kawaguchi et al.; Fujisawa et al.); cited from earlier work
[12] = test system: kanamycin resistant bacteria; conditions: literature (Kawaguchi et al.; Fujisawa et al.); cited from earlier work
[13] = Escherichia coli, W677/JR214, Table 2
[14] = Proteus mirabilis, TB617, Table 2, read-out: MIC
[15] = Klebsiella pneumoniae, KL38, Table 2
[16] = Staphylococcus aureus, ATCC25923
[17] = Pseudomonas aeruginosa, PP6, Table 2
[18] = Escherichia coli, W677/JR214, Table 3
[19] = Proteus mirabilis, TB617, Table 3, read-out: MIC
[20] = Klebsiella pneumoniae, KL38, Table 3
[21] = Pseudomonas aeruginosa, PP6, Table 3
[22] = Table 2, tobramycin resistant organism

`CN[C@@H]1[C@@H](O)[C@@H](O[C@@H]2[C@@H](O)[C@H](O[C@H]3OC(CN)=CC[C@H]3N)[C@@H](N)C[C@H]2N)OC[C@]1(C)O` [SSM, sisomicin] showed an MIC [1, 13] of 25 µg/mL (≈ 55.9 µM), an MIC (Proteus mirabilis TB-617; [14]) of 12.5 µg/mL (≈ 27.9 µM) and an MIC [2, 15] of 0.39 µg/mL (≈ 0.871 µM). It also gave an MIC [3, 16] of 1.56 µg/mL (≈ 3.49 µM), an MIC ([4]; Escherichia coli, W677/JR762) of 50 µg/mL (≈ 112 µM) and an MIC [5, 17] of 200 µg/mL (≈ 447 µM). It also gave an MIC ([6]; Pseudomonas aeruginosa, TM121) of 200 µg/mL (≈ 447 µM).

`NC[C@H]1O[C@H](O[C@H]2[C@H](O)[C@@H](O[C@H]3O[C@H](CO)[C@@H](O)[C@H](N)[C@H]3O)[C@H](NC(=O)C3(O)CCNCC3)C[C@@H]2N)[C@H](N)C[C@@H]1O` [TOB der.] gave an MIC [7] of 12.5 µg/mL (≈ 21 µM), an MIC (Escherichia coli TB-705) of 3.13 µg/mL (≈ 5.26 µM) and an MIC [8] of 0.78 µg/mL (≈ 1.31 µM). It also gave an MIC (Proteus rettgeri Ret 33) of 0.78 µg/mL (≈ 1.31 µM), an MIC [1, 13] of 1.56 µg/mL (≈ 2.62 µM) and an MIC [1, 18] of 0.78 µg/mL (≈ 1.31 µM). For the same compound, the MIC (Proteus mirabilis TB-617; [14]) was 6.25 µg/mL (≈ 10.5 µM), the MIC (Proteus mirabilis TB-617; [19]) was 1.56 µg/mL (≈ 2.62 µM) and the MIC [2, 15] was 1.56 µg/mL (≈ 2.62 µM). For the same compound, the MIC [2, 20] was 0.78 µg/mL (≈ 1.31 µM), the MIC [9] was 0.78 µg/mL (≈ 1.31 µM) and the MIC [10] was 0.39 µg/mL (≈ 0.656 µM). The MIC [3, 16] was 1.56 µg/mL (≈ 2.62 µM), the MIC ([4]; Escherichia coli, W677/JR762) was 6.25 µg/mL (≈ 10.5 µM) and the MIC [5, 17] was 6.25 µg/mL (≈ 10.5 µM). For the same compound, the MIC [5, 21] was 3.13 µg/mL (≈ 5.26 µM) and the MIC ([6]; Pseudomonas aeruginosa, TM121) was 12.5 µg/mL (≈ 21 µM).

In the case of `NC[C@H]1O[C@H](O[C@H]2[C@H](O)[C@@H](O[C@H]3O[C@H](CO)[C@@H](O)[C@H](N)[C@H]3O)[C@H](N)C[C@@H]2N)[C@H](O)[C@@H](O)[C@@H]1O` [KM-A, kanamycin A], the MIC [7] is reported as over 100 µg/mL, the MIC (Escherichia coli TB-705) is reported as over 100 µg/mL and the MIC [8] is reported as over 100 µg/mL. The MIC (Proteus rettgeri Ret 33) was over 100 µg/mL, the MIC [1, 13] was over 200 µg/mL and the MIC [1, 18] was over 100 µg/mL. The MIC (Proteus mirabilis TB-617; [14]) was over 200 µg/mL, the MIC (Proteus mirabilis TB-617; [19]) was over 100 µg/mL and the MIC [2, 15] was over 200 µg/mL. For the same compound, the MIC [2, 20] was over 100 µg/mL, the MIC [9] was over 100 µg/mL and the MIC [10] was over 100 µg/mL. It also gave an MIC [3, 16] of 6.25 µg/mL (≈ 12.9 µM), an MIC ([4]; Escherichia coli, W677/JR762) of over 200 µg/mL and an MIC [5, 17] of 200 µg/mL (≈ 413 µM). It also gave an MIC [5, 21] of over 100 µg/mL and an MIC ([6]; Pseudomonas aeruginosa, TM121) of over 200 µg/mL.

In the case of `NCC[C@H](O)C(=O)N[C@@H]1C[C@H](N)[C@@H](O[C@H]2O[C@H](CN)[C@@H](O)[C@H](O)[C@H]2O)[C@H](O)[C@H]1O[C@H]1O[C@H](CO)[C@@H](O)[C@H](N)[C@H]1O` [Amikacin, amikacin], the “toxicity compared with kanamycin” value [11] is listed as “approximately the same degree of the toxicity as kanamycin” and the “effectiveness against kanamycin resistant bacteria” value [12] is listed as “effective against kanamycin resistant bacteria”.

In the case of `NC[C@H]1O[C@H](O[C@H]2[C@H](O)[C@@H](O[C@H]3O[C@H](CO)[C@@H](O)[C@H](N)[C@H]3O)[C@H](N)C[C@@H]2N)[C@H](N)C[C@@H]1O` [TOB, tobramycin], the MIC [7] is reported as 50 µg/mL (≈ 107 µM), the MIC (Escherichia coli TB-705) is reported as 6.25 µg/mL (≈ 13.4 µM) and the MIC [8] is reported as 0.78 µg/mL (≈ 1.67 µM). The MIC (Proteus rettgeri Ret 33) was 1.56 µg/mL (≈ 3.34 µM), the MIC [1, 13] was 50 µg/mL (≈ 107 µM) and the MIC [1, 18] was 100 µg/mL (≈ 214 µM). For the same compound, the MIC (Proteus mirabilis TB-617; [14]) was 12.5 µg/mL (≈ 26.7 µM), the MIC (Proteus mirabilis TB-617; [19]) was 12.5 µg/mL (≈ 26.7 µM) and the MIC [2, 15] was 3.13 µg/mL (≈ 6.69 µM). It also gave an MIC [2, 20] of 1.56 µg/mL (≈ 3.34 µM), an MIC [9] of 3.13 µg/mL (≈ 6.69 µM) and an MIC [10] of 0.78 µg/mL (≈ 1.67 µM). For the same compound, the MIC [3, 16] was 1.56 µg/mL (≈ 3.34 µM), the MIC ([4]; Escherichia coli, W677/JR762) was 100 µg/mL (≈ 214 µM) and the MIC [5, 17] was 50 µg/mL (≈ 107 µM). For the same compound, the MIC [5, 21] was over 100 µg/mL and the MIC ([6]; Pseudomonas aeruginosa, TM121) was 100 µg/mL (≈ 214 µM).

For `NC[C@H]1O[C@H](O[C@H]2[C@H](O)[C@@H](O[C@H]3O[C@H](CO)[C@@H](O)[C@H](N)[C@H]3O)[C@H](NC(=O)C3(O)CCNC3)C[C@@H]2N)[C@H](O)[C@@H](O)[C@@H]1O` (some centres unmarked) [KM-A der., 1-N-(3-hydroxypyrrolidine-3-carbonyl)-kanamycin A], the MIC [7] was 6.25 µg/mL (≈ 10.5 µM), the MIC (Escherichia coli TB-705) was 25 µg/mL (≈ 41.8 µM) and the MIC [8] was 3.13 µg/mL (≈ 5.24 µM). The MIC (Proteus rettgeri Ret 33) was 1.56 µg/mL (≈ 2.61 µM), the MIC [1, 18] was 6.25 µg/mL (≈ 10.5 µM) and the MIC (Proteus mirabilis TB-617; [19]) was 6.25 µg/mL (≈ 10.5 µM). The MIC [2, 20] was 3.13 µg/mL (≈ 5.24 µM), the MIC [9] was 3.13 µg/mL (≈ 5.24 µM) and the MIC [10] was 12.5 µg/mL (≈ 20.9 µM). For the same compound, the MIC [5, 21] was 12.5 µg/mL (≈ 20.9 µM).

Work on gentamicin [GM] yielded an MIC ([1]; Table 2) of 100 µg/mL, an MIC (Proteus mirabilis TB-617; Table 2) of 25 µg/mL and an MIC ([2]; Table 2) of 0.78 µg/mL. The MIC ([3]; Table 2) was 0.78 µg/mL, the MIC [4, 22] was 100 µg/mL and the MIC ([5]; Table 2) was over 200 µg/mL. The MIC [6, 22] was 100 µg/mL.

Reference: patent US4166114A, “Aminoglycoside antibiotic derivatives and method of use” (Shionogi & Co., Ltd., priority 1976, dated 1979)
